Experimental data as given in patent publication US20180021323A1, “FLIP - A SELECTIVE MOLECULAR TARGET OF SENESCENT CELLS” (BIOVENTURES, LLC, priority 2015, published 2018).

Legend:
normal (NC) WI38 cells = experiment: Cell viability of normal (NC) WI38 cells, 72 h treatment; type: cell-based; conditions: for LD50 (NC): normal (NC) WI38 cells, viable cells determined 72 h after treatment
Protocol: The expression of FLIP in normal (NC) and IR-induced senescent (SC) WI38 cells was determined by Western blot 24 h after they were treated with vehicle (VEH) or Drox (10 μM). […] IR-induced senescent (SC) WI38 cells were treated with vehicle (VEH) or Drox (10 μM) for 6 h and the expression of FLIP mRNA in these cells was determined by qPCR. […] Viable cells were determined 72 h after normal (NC) and IR-induced senescent (SC) WI38 cells were treated with vehicle (VEH) or increasing concentrations of Drox. The data are presented as a percentage of control cells treated with VEH. […] Normal (NC) and IR-induced senescent (SC) WI38 cells were treated with vehicle (VEH), Drox (10 μM), PL (10 μM), and EF-24 (10 μM) for 24 h and the expression of FLIP in these cells was determined by Western blots. […] Viable cells were determined 72 h after normal (NC) and IR-induced senescent (SC) WI38 cells were treated with vehicle (VEH) or increasing concentrations of Drox, PL, and EF-24. LD50 values for these molecules against NC and SC were calculated and presented.

[1] = system: IR-induced senescent (SC) WI38 cells; experiment: Cell viability of IR-induced senescent (SC) WI38 cells, 72 h treatment; type: cell-based, human; conditions: for LD50 (SC): IR-induced senescent (SC) WI38 cells, viable cells determined 72 h after treatment; for killing of IR-induced senescent (SC) WI38 cells (viable cells, % of vehicle control): increasing concentrations, 72 h
Protocol: (§1) The expression of FLIP in normal (NC) and IR-induced senescent (SC) WI38 cells was determined by Western blot 24 h after they were treated with vehicle (VEH) or Drox (10 μM). Treatment with droxinostat (Drox) down-regulates the expression of FLIP mRNA in IR-induced senescent (SC) WI38 cells (FIG. 3B). IR-induced senescent (SC) WI38 cells were treated with vehicle (VEH) or Drox (10 μM) for 6 h and the expression of FLIP mRNA in these cells was determined by qPCR. […] Viable cells were determined 72 h after normal (NC) and IR-induced senescent (SC) WI38 cells were treated with vehicle (VEH) or increasing concentrations of Drox. The data are presented as a percentage of control cells treated with VEH. Treatment with droxinostat (Drox), piperlongumine (PL) and EF-24 down-regulates the expression of FLIP in IR-induced senescent (SC) WI38 cells (FIG. 3E). Normal (NC) and IR-induced senescent (SC) WI38 cells were treated with vehicle (VEH), Drox (10 μM), PL (10 μM), and EF-24 (10 μM) for 24 h and the expression of FLIP in these cells was determined by Western blots. […] Viable cells were determined 72 h after normal (NC) and IR-induced senescent (SC) WI38 cells were treated with vehicle (VEH) or increasing concentrations of Drox, PL, and EF-24. LD50 values for these molecules against NC and SC were calculated and presented.

FLIP = FLIP protein expression by Western blot in IR-induced senescent WI38 cells; type: cell-based, human; conditions: 10 μM, 24 h
Description: Treatment with doxycycoline (DOX) dose-dependently induces FLIP-shRNA expression in WI38 cell line after the cells were stably transfected with a plasmid containing FLIP-shRNA and red fluorescent protein (RFP) genes (FIG. 2A). Induction of FLIP-shRNA by doxycycoline down-regulates FLIP expression in IR-induced senescent WI38 cells stably transfected with FLIP-shRNA but not in vector transfected cells (FIG. 2B).
as §1

FLIP mRNA = FLIP mRNA expression by qPCR in IR-induced senescent WI38 cells; type: cell-based, human; conditions: 10 μM, 6 h
Protocol: as §1

SMILES | effect on normal (NC) WI38 cells (viable cells, % of vehicle control) (normal (NC) WI38 cells; increasing concentrations, 72 h) | LD50 (NC) (normal (NC) WI38 cells) | LD50 (SC) [1] | killing of IR-induced senescent (SC) WI38 cells (viable cells, % of vehicle control) [1] | expression of FLIP (Western blot, FIG. 3A) (FLIP) | expression of FLIP (Western blot, FIG. 3E) (FLIP) | expression of FLIP mRNA (qPCR, FIG. 3B) (FLIP mRNA)
Cc1cc(Cl)ccc1OCCCC(=O)NO [Droxinostat, 4-(4-chloro-2-methylphenoxy)-N-hydroxybutanamide] | minimal effect | 39.58 µM | 8.26 µM | selectively kill | down-regulated | down-regulates | down-regulates
O=C1/C(=C/c2ccccc2F)CNC/C1=C\c1ccccc1F [EF-24] |  | 6.08 µM | 1.05 µM | selectively kill |  | down-regulates | 
COc1cc(/C=C/C(=O)N2CCC=CC2=O)cc(OC)c1OC [Piperlongumine, piperlongumine] |  | 24.25 µM | 7.05 µM | selectively kill |  | down-regulates | 
